The numbers were not newly measured in patent US8916612B2, “Agmatine containing dietary supplements, nutraceuticals, and foods” (priority 2008, dated 2014), which cites them from elsewhere.

The test system of this data set is mice, rats, dogs, calves and monkeys. Conditions: variable dose ranges and regimens; cited from earlier work.

Regarding `N=C(N)NCCCCN` [agmatine], the “Toxic effects during or after oral intake” value is recorded as “No toxic effects”.
